Measurements as given in publication PMC12408683 (Archives of Toxicology, 2025).

Columns and labels:
HepG2-CYP1A2 cells [1] = assay: Alkaline comet assay (DNA strand breaks) in HepG2-CYP1A2 cells; settings: positive control, 200 µM, 20 min
Description: (§1) As a positive control, tBuOOH (20 min, 200 µM) was used. Subsequently, the alkaline comet assay was performed to quantify DNA strand breaks as previously described (Haas et al. [2023b]). Per sample, at least 50 comets were counted with Comet IV software (Instem, Staffordshire, UK) using a Zeiss Axio Observer 7 microscope equipped with an Axiocam 305 mono and ZEN 3.2 software (Carl Zeiss, Jena, Germany).

HepG2 cells [2] = settings: positive control, 200 µM, 20 min
Description: as §1

calf thymus DNA = tested on: calf thymus DNA; parameters: method as in Bergau et al. 2021; settings: ref Bergau et al. 2021; cited from earlier work
HepG2 cells [3] = assay: Resazurin reduction assay (cytotoxicity) in HepG2 cells; settings: positive control 10 µM, time-dependent
[4] = parameters: method as in Carlsson et al. 2022; settings: ref Carlsson et al. 2022; cited from earlier work
[5] = parameters: method as in Carlsson et al. 2022; settings: concentrations below 25 µM; ref Carlsson et al. 2022; cited from earlier work
HepG2-CYP1A2 cells [6] = settings: positive control
Description: The CBMN assay was performed according to the OECD test guideline #487. Therefore, 2 × 10^5 cells were seeded in 3.5 cm dishes and allowed to adhere for 24 h. […] After the 24 h treatment, the medium was discarded and the cells were incubated with fresh medium, containing 6 µg/mL cytochalasin B as cytokinesis inhibitor. The cells were then left to grow for 72 h, allowing for 1.5–2 × cell cycles. Subsequently, the cells were rinsed with PBS and fixed with ice-cold methanol for 10 min at –20 °C. Cells were washed and embedded with Vectashield® containing DAPI (Vector Labs, Burlingame, CA, USA). The samples were analysed with a Zeiss Axio Observer 7 microscope equipped with an Axiocam 305 mono and a 63 × oil immersion objective (plan-apochromat 63x/1.40 DIC M27) using ZEN Software 3.2. 500 binucleated cells per sample were analysed for micronuclei formation.
As benchmark response (BMR) for all concentration–response curves (adducts, micronuclei), a 2.0-fold increase vs. solvent control was used (BMC100, critical effect size = 1). The determined BMC100 and the corresponding upper and lower boundary (BMCU and BMCL, respectively) of the 90% confidence interval (CI) were used for potency comparison.

human liver biopsies = tested on: human liver biopsies; parameters: method as in Herrmann et al. 2013; settings: ref Herrmann et al. 2013; cited from earlier work

For `CC(C)(C)OO` [tBuOOH, tert-butyl hydroperoxide, reference compound], the “DNA strand breaks (alkaline comet assay)” value (HepG2-CYP1A2 cells [1]) was “strong DNA strand break induction” and the “DNA strand breaks (alkaline comet assay)” value (HepG2 cells [2]) was “strong DNA strand break induction”.

For `C/C=C/c1ccc(OC)cc1` [anethole], the “E3′-N2-dG adduct levels vs equimolar ES concentrations” value (calf thymus DNA) is listed as “several times lower”.

For `COc1cc([C@@H]2c3cc4c(cc3[C@@H](O[C@@H]3O[C@@H]5CO[C@@H](C)O[C@H]5[C@H](O)[C@H]3O)[C@H]3COC(=O)[C@H]23)OCO4)cc(OC)c1O` [etoposide, reference compound], the “cytotoxicity (resazurin reduction assay)” value (HepG2 cells [3]) was “cytotoxic”.

For `C=CC(O)c1ccc(OC)c(OC)c1` (centres unmarked) [1′OH-ME, 1′-hydroxymethyleugenol], the “alkaline comet assay outcome” value [4] is listed as “negative” and the cytotoxicity [5] is listed as “not cytotoxic”.

In the case of `CO[C@@]12[C@H](COC(N)=O)C3=C(C(=O)C(C)=C(N)C3=O)N1C[C@@H]1N[C@@H]12` [MMC, mitomycin C, reference compound], the “MN (CBMN)” value (HepG2-CYP1A2 cells [6]) is reported as “robust increase in MN”.

For `C=CCc1ccc(OC)c(OC)c1` [ME, methyleugenol], the “ME-derived DNA adducts, median” value (human liver biopsies) is listed as 13 adducts/10^8 nts.
